US20260226065A1, “SUBSTITUTED BENZENE COMPOUND” (DAIICHI SANKYO COMPANY, LIMITED, priority 2023, published 2026)

Each compound was assayed against T1, NLRP3 inflammasome (Homo sapiens, UniProt Q96P20) (assay: In vitro IL-1β production test (PMA-differentiated THP-1 cells, Nigericin stimulation, AlphaLISA)). Details: inhibition of IL-1β production; THP-1 cells differentiated with 200 nM PMA; 0.015 mM Nigericin; 2 hours.
T1 construct: endogenous in cells; host or cells: THP-1 (human monocyte-derived), PMA-differentiated, Nigericin-stimulated
T1 sequence (Q96P20 whole entry): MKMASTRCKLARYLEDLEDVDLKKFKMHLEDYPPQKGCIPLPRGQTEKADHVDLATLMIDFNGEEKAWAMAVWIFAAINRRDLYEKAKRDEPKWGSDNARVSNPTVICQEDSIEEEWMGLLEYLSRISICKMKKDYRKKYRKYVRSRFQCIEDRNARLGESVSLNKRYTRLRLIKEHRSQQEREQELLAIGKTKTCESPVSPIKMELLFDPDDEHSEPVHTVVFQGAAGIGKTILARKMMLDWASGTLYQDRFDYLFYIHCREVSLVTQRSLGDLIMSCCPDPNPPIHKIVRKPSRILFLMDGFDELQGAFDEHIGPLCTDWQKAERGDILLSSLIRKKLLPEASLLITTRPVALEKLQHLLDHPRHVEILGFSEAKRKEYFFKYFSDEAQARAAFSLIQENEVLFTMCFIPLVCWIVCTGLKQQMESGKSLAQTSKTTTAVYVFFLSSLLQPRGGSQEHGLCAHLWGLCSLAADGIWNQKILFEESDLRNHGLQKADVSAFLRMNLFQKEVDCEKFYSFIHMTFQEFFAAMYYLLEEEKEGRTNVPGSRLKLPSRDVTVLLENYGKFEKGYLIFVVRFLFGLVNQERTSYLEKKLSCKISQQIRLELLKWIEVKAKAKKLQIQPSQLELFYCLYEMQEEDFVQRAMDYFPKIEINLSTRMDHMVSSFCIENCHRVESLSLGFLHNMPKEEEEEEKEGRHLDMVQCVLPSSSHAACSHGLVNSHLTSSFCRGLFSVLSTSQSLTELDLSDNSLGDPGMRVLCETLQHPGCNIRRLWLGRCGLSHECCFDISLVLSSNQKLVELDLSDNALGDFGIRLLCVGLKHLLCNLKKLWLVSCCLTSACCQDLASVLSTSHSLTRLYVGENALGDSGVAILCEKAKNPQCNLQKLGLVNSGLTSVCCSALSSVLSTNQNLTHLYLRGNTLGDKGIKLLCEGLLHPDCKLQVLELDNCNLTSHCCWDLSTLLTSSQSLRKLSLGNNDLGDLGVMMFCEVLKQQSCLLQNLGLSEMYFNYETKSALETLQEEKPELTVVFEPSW
Type: cell-based
Outline: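 THP-1 cells were differentiated one day with 200 nM PMA, then given serum-free medium with 0.015 mM nigericin plus compound for 2 h. Supernatant IL-1β was measured by AlphaLISA, with nigericin alone as 0% and unstimulated as 100% inhibition. IC50 came from logistic sigmoid fitting.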
With `Cc1cc(C(F)(F)F)cc(O)c1-c1cc2c(C)c(C)n([C@H]3C[C@@](C)(O)C3)c2nn1` [Example 51, 2-{7-[(1s,3s)-3-hydroxy-3-methylcyclobutyl]-5,6-dimethyl-7H-pyrrolo[2,3-c]pyridazin-3-yl}-3-methyl-5-(trifluoromethyl)phenol] the IC50 was 33.6 nM.
Compound `Cc1cc(C#N)cc(O)c1-c1cc2c(C)cn([C@H]3C[C@@](C)(O)C3)c2nn1` [Example 52, 3-hydroxy-4-{7-[(1s,3s)-3-hydroxy-3-methylcyclobutyl]-5-methyl-7H-pyrrolo[2,3-c]pyridazin-3-yl}-5-methylbenzonitrile] has an IC50 of 39.1 nM.
Work on `Cc1cn([C@H]2C[C@@](C)(O)C2)c2nnc(-c3c(O)cc(C(F)(F)F)cc3C#N)cc12` [Example 53, 3-hydroxy-2-{7-[(1s,3s)-3-hydroxy-3-methylcyclobutyl]-5-methyl-7H-pyrrolo[2,3-c]pyridazin-3-yl}-5-(trifluoromethyl)benzonitrile] yielded an IC50 of 275 nM.
`Cc1cc(C(F)(F)F)cc(O)c1-c1cc2c(C)cn([C@@H]3CCC[C@@H](O)C3)c2nn1` [Example 54, 2-{7-[(1R,3R)-3-hydroxycyclohexyl]-5-methyl-7H-pyrrolo[2,3-c]pyridazin-3-yl}-3-methyl-5-(trifluoromethyl)phenol] showed an IC50 of 84.3 nM.
For `Cc1cc(C(F)(F)F)cc(O)c1-c1cc2c(C)cn([C@@H]3CCCN(C)C3)c2nn1` [Example 56, 3-methyl-2-{5-methyl-7-[(3R)-1-methylpiperidin-3-yl]-7H-pyrrolo[2,3-c]pyridazin-3-yl}-5-(trifluoromethyl)phenol], the IC50 was 14.4 nM.
For `Cc1cc(C(F)(F)F)cc(O)c1-c1cc2c(nn1)N([C@@H]1CCCN(CC(C)(C)O)C1)CC2` [Example 58, 2-{7-[(3R)-1-(2-hydroxy-2-methylpropyl)piperidin-3-yl]-6,7-dihydro-5H-pyrrolo[2,3-c]pyridazin-3-yl}-3-methyl-5-(trifluoromethyl)phenol], the IC50 was 55.8 nM.
For `Cc1cc(C(F)(F)F)cc(O)c1-c1cc2c(C(F)(F)F)cn([C@H]3C[C@@](C)(O)C3)c2nn1` [Example 59, 2-{7-[(1s,3s)-3-hydroxy-3-methylcyclobutyl]-5-(trifluoromethyl)-7H-pyrrolo[2,3-c]pyridazin-3-yl}-3-methyl-5-(trifluoromethyl)phenol], the IC50 was 95.8 nM.
For `Cc1cc(C(F)(F)F)cc(O)c1-c1cc2c(nn1)N([C@@H]1C[C@@H](F)CN(C)C1)CC2` [Example 60, 2-{7-[(3R,5R)-5-fluoro-1-methylpiperidin-3-yl]-6,7-dihydro-5H-pyrrolo[2,3-c]pyridazin-3-yl}-3-methyl-5-(trifluoromethyl)phenol], the IC50 was 74.8 nM.
`Cc1cc(C(F)(F)F)cc(O)c1-c1cc2c(nn1)N([C@@H]1CCCN(CC3CC3)C1)CC2` [Example 61, 2-{7-[(3R)-1-(cyclopropylmethyl)piperidin-3-yl]-6,7-dihydro-5H-pyrrolo[2,3-c]pyridazin-3-yl}-3-methyl-5-(trifluoromethyl)phenol] gave an IC50 of 25.3 nM.
Work on `CCc1cc(C)c(-c2cc3c(C)cn([C@H]4C[C@@](C)(O)C4)c3nn2)c(O)c1` [Example 62, 5-ethyl-2-{7-[(1s,3s)-3-hydroxy-3-methylcyclobutyl]-5-methyl-7H-pyrrolo[2,3-c]pyridazin-3-yl}-3-methylphenol] yielded an IC50 of 70.8 nM.
`Cc1cn([C@H]2C[C@@](C)(O)C2)c2nnc(-c3c(O)cc(Cl)cc3Cl)cc12` [Example 63, 3,5-dichloro-2-{7-[(1s,3s)-3-hydroxy-3-methylcyclobutyl]-5-methyl-7H-pyrrolo[2,3-c]pyridazin-3-yl}phenol] gave an IC50 of 42.3 nM.
Work on `CCN1CCC[C@@H](n2cc(C#N)c3cc(-c4c(C)cc(C(F)(F)F)cc4O)nnc32)C1` [Example 64, 7-[(3R)-1-ethylpiperidin-3-yl]-3-[2-hydroxy-6-methyl-4-(trifluoromethyl)phenyl]-7H-pyrrolo[2,3-c]pyridazine-5-carbonitrile] yielded an IC50 of 9.6 nM.
Compound `Cc1cc(C(F)(F)F)cc(O)c1-c1cc2c(C)cn(C34COCC(O)(C3)C4)c2nn1` [Example 65, 5-{3-[2-hydroxy-6-methyl-4-(trifluoromethyl)phenyl]-5-methyl-7H-pyrrolo[2,3-c]pyridazin-7-yl}-3-oxabicyclo[3.1.1]heptan-1-ol] has an IC50 of 47 nM.
`CCN1C[C@H](F)C[C@@H](N2CCc3cc(-c4c(C)cc(C(F)(F)F)cc4O)nnc32)C1` [Example 66, 2-{7-[(3R,5R)-1-ethyl-5-fluoropiperidin-3-yl]-6,7-dihydro-5H-pyrrolo[2,3-c]pyridazin-3-yl}-3-methyl-5-(trifluoromethyl)phenol] showed an IC50 of 16.4 nM.
With `CCN1CCC[C@@H](n2cc(C#N)c3cc(-c4c(C)cc(OC(F)F)cc4O)nnc32)C1` [Example 67, 3-[4-(difluoromethoxy)-2-hydroxy-6-methylphenyl]-7-[(3R)-1-ethylpiperidin-3-yl]-7H-pyrrolo[2,3-c]pyridazine-5-carbonitrile] the IC50 was 4.93 nM.
Work on `Cc1cc(OC(F)F)cc(O)c1-c1cc2c(C#N)cn([C@@H]3CCCN(C(C)C)C3)c2nn1` [Example 68, 3-[4-(difluoromethoxy)-2-hydroxy-6-methylphenyl]-7-[(3R)-1-(propan-2-yl)piperidin-3-yl]-7H-pyrrolo[2,3-c]pyridazine-5-carbonitrile] yielded an IC50 of 6.01 nM.
Work on `Cc1cc(C(C)(F)F)cc(O)c1-c1cc2c(C)cn([C@H]3C[C@@](C)(O)C3)c2nn1` [Example 69, 5-(1,1-difluoroethyl)-2-{7-[(1s,3s)-3-hydroxy-3-methylcyclobutyl]-5-methyl-7H-pyrrolo[2,3-c]pyridazin-3-yl}-3-methylphenol] yielded an IC50 of 47.8 nM.
In the case of `Cc1cc(C(F)(F)F)cc(O)c1-c1cc2c(C)cn(C34CCC(O)(C3)C4)c2nn1` [Example 70, 4-{3-[2-hydroxy-6-methyl-4-(trifluoromethyl)phenyl]-5-methyl-7H-pyrrolo[2,3-c]pyridazin-7-yl}bicyclo[2.1.1]hexan-1-ol], the IC50 is reported as 31.2 nM.
For `CCN1CCC[C@@H](n2cc(C)c3cc(-c4c(C)cc(OC(F)F)cc4O)nnc32)C1` [Example 71, 5-(difluoromethoxy)-2-{7-[(3R)-1-ethylpiperidin-3-yl]-5-methyl-7H-pyrrolo[2,3-c]pyridazin-3-yl}-3-methylphenol], the IC50 was 8.18 nM.
`COc1cn([C@H]2C[C@@](C)(O)C2)c2nnc(-c3c(C)cc(OC(F)F)cc3O)cc12` [Example 72, 5-(difluoromethoxy)-2-{7-[(1s,3s)-3-hydroxy-3-methylcyclobutyl]-5-methoxy-7H-pyrrolo[2,3-c]pyridazin-3-yl}-3-methylphenol] showed an IC50 of 53.1 nM.
Compound `Cc1cc(OC(F)F)cc(O)c1-c1cc2c(C#N)cn([C@H]3C[C@@](C)(O)C3)c2nn1` [Example 74, 3-[4-(difluoromethoxy)-2-hydroxy-6-methylphenyl]-7-[(1s,3s)-3-hydroxy-3-methylcyclobutyl]-7H-pyrrolo[2,3-c]pyridazine-5-carbonitrile] has an IC50 of 26.1 nM.
`CCN1CC2(O)CC(n3cc(C)c4cc(-c5c(C)cc(C(F)(F)F)cc5O)nnc43)(C1)C2` [Example 75, 3-ethyl-5-{3-[2-hydroxy-6-methyl-4-(trifluoromethyl)phenyl]-5-methyl-7H-pyrrolo[2,3-c]pyridazin-7-yl}-3-azabicyclo[3.1.1]heptan-1-ol] showed an IC50 of 98.4 nM.
`CCN1CCC[C@@H](n2cc(OC)c3cc(-c4c(C)cc(C(F)(F)F)cc4O)nnc32)C1` [Example 77, 2-{7-[(3R)-1-ethylpiperidin-3-yl]-5-methoxy-7H-pyrrolo[2,3-c]pyridazin-3-yl}-3-methyl-5-(trifluoromethyl)phenol] gave an IC50 of 14 nM.
Compound `Cc1cc(OC(F)F)cc(O)c1-c1cc2c(OC(F)F)cn([C@H]3C[C@@](C)(O)C3)c2nn1` [Example 78, 5-(difluoromethoxy)-2-[5-(difluoromethoxy)-7-[(1s,3s)-3-hydroxy-3-methylcyclobutyl]-7H-pyrrolo[2,3-c]pyridazin-3-yl]-3-methylphenol] has an IC50 of 35 nM.
`Cc1cc(OC(F)F)cc(O)c1-c1cc2c3c(n([C@H]4C[C@@](C)(O)C4)c2nn1)CCC3` [Example 80, 5-(difluoromethoxy)-2-{8-[(1s,3s)-3-hydroxy-3-methylcyclobutyl]-5,6,7,8-tetrahydrocyclopenta[4,5]pyrrolo[2,3-c]pyridazin-3-yl}-3-methylphenol] gave an IC50 of 22.4 nM.
For `Cc1cc(C(F)(F)F)cc(O)c1-c1cc2c3ccccc3n([C@H]3C[C@@](C)(O)C3)c2nn1` [Example 81, 2-{9-[(1s,3s)-3-hydroxy-3-methylcyclobutyl]-9H-pyridazino[3,4-b]indol-3-yl}-3-methyl-5-(trifluoromethyl)phenol], the IC50 was 54.7 nM.
With `Cc1cc(Cl)cc(O)c1-c1cc2c3c(n([C@H]4C[C@@](C)(O)C4)c2nn1)CCC3` [Example 82, 5-chloro-2-{8-[(1s,3s)-3-hydroxy-3-methylcyclobutyl]-5,6,7,8-tetrahydrocyclopenta[4,5]pyrrolo[2,3-c]pyridazin-3-yl}-3-methylphenol] the IC50 was 7.83 nM.
Work on `Cc1cc(C(F)(F)F)cc(O)c1-c1cc2c3c(n([C@H]4C[C@@](C)(O)C4)c2nn1)CCO3` [Example 83, 2-{8-[(1s,3s)-3-hydroxy-3-methylcyclobutyl]-7,8-dihydro-6H-furo[2′,3′:4,5]pyrrolo[2,3-c]pyridazin-3-yl}-3-methyl-5-(trifluoromethyl)phenol] yielded an IC50 of 9.16 nM.
`Cc1cc(C(F)(F)F)cc(O)c1-c1cc2ccn(-c3ncc(F)cn3)c2nn1` [Example 84, 2-[7-(5-fluoropyrimidin-2-yl)-7H-pyrrolo[2,3-c]pyridazin-3-yl]-3-methyl-5-(trifluoromethyl)phenol] gave an IC50 of 12.8 nM.
In the case of `Cc1cc(C(F)(F)F)cc(O)c1-c1cc2cc(C)n([C@H]3C[C@@](C)(O)C3)c2nn1` [Example 87, 2-{7-[(1s,3s)-3-hydroxy-3-methylcyclobutyl]-6-methyl-7H-pyrrolo[2,3-c]pyridazin-3-yl}-3-methyl-5-(trifluoromethyl)phenol], the IC50 is reported as 40.1 nM.
`Cc1cc(C(F)(F)F)cc(O)c1-c1cc2ccn(C34CCCC(O)(C3)C4)c2nn1` [Example 88, 5-{3-[2-hydroxy-6-methyl-4-(trifluoromethyl)phenyl]-7H-pyrrolo[2,3-c]pyridazin-7-yl}bicyclo[3.1.1]heptan-1-ol] was tested, and the IC50 was 43.1 nM.
